In the NIST ThermoML archive (doi:10.1016/j.jct.2006.07.013):
Numbers after ± are expanded uncertainties.

Legend:
[1] = 298.15 K, 101.33 kPa, Liquid; for speed of sound: Sing-around technique in a fixed-path interferometer
[2] = refractive index (Na D-line) (dimensionless); details: 298.15 K, 101.33 kPa, Liquid

mass density ([1]; Vibrating tube method) [kg/m3] | refractive index ([2]; refractometer) | SMILES | mass density [1] [kg/m3] | speed of sound [1] [m/s] | refractive index ([2]; Standard Abbe refractometry)
 |  | CCCCOC(C)=O [butyl ethanoate] | 876.35 ± 1.9 | 1193.1 ± 2.1 | 1.39191 ± 0.00051
 |  | COC(C)=O [methyl ethanoate] | 927.36 ± 0.65 | 1154 ± 1.2 | 1.35893 ± 0.00037
875.88 ± 0.23 | 1.40945 ± 0.00021 | CCCCCCC(=O)OC [methyl heptanoate] |  | 1254.6 ± 1.2 | 
 |  | Cc1ccccc1 [toluene] | 862.34 ± 0.18 | 1306.3 ± 0.7 | 1.4939 ± 0.00031
